Results as given in ChEMBL document CHEMBL1201861, “Genomics of Drug Sensitity in Cancer screening data, Wellcome Trust Sanger Institute”.
Counter-ions that a name gives are not always drawn.

What was measured:
CP67-MEL = test: SANGER: Inhibition of human CP67-MEL cell growth in a cell viability assay.; format: functional, cell-based
KP-N-RT-BM-1 = test: SANGER: Inhibition of human KP-N-RT-BM-1 cell growth in a cell viability assay.; format: functional, cell-based
SK-CO-1 = test: cells; format: functional, cell-based, Homo sapiens;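 also: growth inhibition of SK-CO-1 cells, determined by a viability readout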
Description: SANGER: Inhibition of human SK-CO-1 cell growth in a cell viability assay.

C-4-II = test: SANGER: Inhibition of human C-4-II cell growth in a cell viability assay.; format: functional, cell-based
RT-4 = test: SANGER: Inhibition of human RT4 cell growth in a cell viability assay.; format: functional, cell-based
NCI-H838 = test: cells; format: functional, cell-based, Homo sapiens;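 also: growth inhibition of human NCI-H838 cells, read out by a cell viability assay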
Description: SANGER: Inhibition of human NCI-H838 cell growth in a cell viability assay.

HCC1143 = test: cells; format: functional, cell-based, Homo sapiens;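 also: growth inhibition of human HCC1143 cells, read out with a cell viability assay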
Description: SANGER: Inhibition of human HCC1143 cell growth in a cell viability assay.

NCI-H1734 = test: cells; format: functional, cell-based, Homo sapiens;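 also: growth inhibition of human NCI-H1734 cells, read out with a cell viability assay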
Description: SANGER: Inhibition of human NCI-H1734 cell growth in a cell viability assay.

NCI-H1618 = test: cells; format: functional, cell-based, Homo sapiens;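 also: growth inhibition of human NCI-H1618 cells, measured by a cell viability assay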
Description: SANGER: Inhibition of human NCI-H1618 cell growth in a cell viability assay.

Caov-3 cell line = test: cells; format: functional, cell-based, Homo sapiens;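 also: cell growth inhibition read out by a viability assay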
Description: SANGER: Inhibition of human Caov-3 cell growth in a cell viability assay.

SNG-M = test: cells; format: functional, cell-based, Homo sapiens
Description: SANGER: Inhibition of human SNG-M cell growth in a cell viability assay.

MES-SA = test: cells; format: functional, cell-based, Homo sapiens;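 also: growth inhibition of human MES-SA cells, read out with a cell viability assay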
Description: SANGER: Inhibition of human MES-SA cell growth in a cell viability assay.

COLO 205 = test: cells; format: functional, cell-based, Homo sapiens
Description: SANGER: Inhibition of human COLO-205 cell growth in a cell viability assay.

EFE-184 = test: cells; format: functional, cell-based, Homo sapiens
Description: SANGER: Inhibition of human EFE-184 cell growth in a cell viability assay.

SNU-475 = test: cells; format: functional, cell-based, Homo sapiens
Description: SANGER: Inhibition of human SNU-475 cell growth in a cell viability assay.

TGBC11TKB = test: cells; format: functional, cell-based, Homo sapiens;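 also: growth inhibition of human TGBC11TKB cells, measured by a cell viability assay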
Description: SANGER: Inhibition of human TGBC11TKB cell growth in a cell viability assay.

NCI-H1975 = test: cells; format: functional, cell-based, Homo sapiens
Description: SANGER: Inhibition of human NCI-H1975 cell growth in a cell viability assay.

RH-18 = test: cells; format: functional, cell-based, Homo sapiens;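 also: growth inhibition of human RH-18 cells, read out with a cell viability assay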
Description: SANGER: Inhibition of human RH-18 cell growth in a cell viability assay.

LU-135 = test: cells; format: functional, cell-based, Homo sapiens
Description: SANGER: Inhibition of human LU-135 cell growth in a cell viability assay.

BALL-1 = test: cells; format: functional, cell-based, Homo sapiens;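 also: growth inhibition of BALL-1 cells, read out with a cell viability assay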
Description: SANGER: Inhibition of human BALL-1 cell growth in a cell viability assay.

NCI-H1666 = test: cells; format: functional, cell-based, Homo sapiens;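 also: growth inhibition of the cell line, read out with a cell viability assay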
Description: SANGER: Inhibition of human NCI-H1666 cell growth in a cell viability assay.

SW900 = test: cells; format: functional, cell-based, Homo sapiens;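 also: IC50 is the concentration that inhibits SW900 cell growth, measured by a cell viability assay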
Description: SANGER: Inhibition of human SW900 cell growth in a cell viability assay.

| Molecule | IC50 (SK-CO-1; Homo sapiens, SK-CO-1) | IC50 (C-4-II; Homo sapiens, C-4-II) | IC50 (RT-4; Homo sapiens, RT-4) | IC50 (NCI-H838; Homo sapiens, NCI-H838) | IC50 (HCC1143; Homo sapiens, HCC1143) | IC50 (NCI-H1734; Homo sapiens, NCI-H1734) | IC50 (NCI-H1618; Homo sapiens, NCI-H1618) | IC50 (Caov-3 cell line; Homo sapiens, Caov-3) | IC50 (SNG-M; Homo sapiens, SNG-M) | IC50 (MES-SA; Homo sapiens, MES-SA) | IC50 (COLO 205; Homo sapiens, COLO 205) | IC50 (EFE-184; Homo sapiens, EFE-184) | IC50 (SNU-475; Homo sapiens, SNU-475) | also measured |
| --- | --- | --- | --- | --- | --- | --- | --- | --- | --- | --- | --- | --- | --- | --- |
| COc1cc(-c2nn([C@H]3CC[C@H](N4CCN(C(C)=O)CC4)CC3)c3ncnc(N)c23)ccc1NC(=O)c1cc2ccccc2n1C |  |  |  |  |  |  |  |  |  |  |  |  |  | IC50 (CP67-MEL): > 5120 nM; IC50 (KP-N-RT-BM-1): > 5120 nM |
| Cc1cc([N+](=O)[O-])ccc1NS(=O)(=O)c1cc(Cl)ccc1Cl | 13400 nM | 6.37 µM | > 32000 nM | 20.6 µM | 1820 nM | 8730 nM | > 32000 nM | > 32000 nM | 2770 nM | > 32000 nM | 2550 nM | 5.8 µM | > 32 µM |  |
| OCCCNc1cc(-c2ccnc(Nc3cccc(Cl)c3)n2)ccn1 |  |  |  |  |  |  |  |  |  |  |  |  |  | IC50 (CP67-MEL): 52 nM; IC50 (KP-N-RT-BM-1): 148 nM |
| Oc1ccc2ccccc2c1SSc1c(O)ccc2ccccc12 | > 32000 nM | > 32 µM | > 32000 nM | > 32 µM | > 32000 nM | > 32000 nM | > 32000 nM | > 32000 nM | > 32000 nM | 23900 nM | > 32000 nM | > 32 µM | > 32 µM |  |
| Cc1ccc(-c2c(C(=O)CCl)n(CCCO)c3ncnc(N)c23)cc1 |  |  |  |  |  |  |  |  |  |  |  |  |  | IC50 (CP67-MEL): > 4000 nM; IC50 (KP-N-RT-BM-1): 2510 nM |
| C=C(c1ccc(C(=O)O)cc1)c1cc2c(cc1C)C(C)(C)CCC2(C)C [BEXAROTENE] | > 8000 nM | > 8 µM | > 8000 nM | > 8 µM | > 8000 nM | > 8000 nM | > 8000 nM | > 8000 nM | > 8000 nM | > 8000 nM | > 8000 nM | > 8 µM | > 8 µM |  |
| CCC/C=C/C=C/C(=O)O[C@H]1/C(=C/C(=O)OC)C[C@H]2C[C@H]([C@@H](C)O)OC(=O)C[C@H](O)C[C@@H]3C[C@H](OC(C)=O)C(C)(C)[C@](O)(C[C@@H]4C/C(=C/C(=O)OC)C[C@H](/C=C/C(C)(C)[C@]1(O)O2)O4)O3 [BRYOSTATIN 1] | > 8 nM | > 0.008 µM | > 8 nM | > 0.008 µM | > 8 nM | > 8 nM | > 8 nM | > 8 nM | > 8 nM | > 8 nM | > 8 nM | > 0.008 µM | > 0.008 µM |  |
| COc1cccc2c1C(=O)c1c(O)c3c(c(O)c1C2=O)C[C@@](O)(C(=O)CO)C[C@@H]3O[C@H]1C[C@H](N)[C@H](O)[C@H](C)O1 [DOXORUBICIN] | 129 nM | 0.473 µM | > 1020 nM | 0.225 µM | > 1020 nM | 53 nM | 104 nM | 406 nM | 18.3 nM | 99.5 nM | 27 nM | > 1.02 µM | > 1.02 µM |  |
| Nc1ccn([C@@H]2O[C@H](CO)[C@@H](O)C2(F)F)c(=O)n1 [GEMCITABINE] | 34 nM | 0.152 µM | > 1020 nM | 0.499 µM | > 1020 nM | 11.3 nM | 198 nM | 54.1 nM | < 4 nM | < 4 nM | > 1020 nM | > 1.02 µM | > 1.02 µM |  |
| O=C(O)c1ccc(-c2c[nH]c3ncc(-c4ccccc4)cc23)cc1C1CCCC1 [GSK-650394] | > 16000 nM | 13.9 µM | > 16000 nM | > 16 µM | > 16000 nM | > 16000 nM | > 16000 nM | > 16000 nM | 1800 nM | 5560 nM | > 16000 nM | > 16 µM | > 16 µM |  |
| COc1cc2ncn(-c3cc(OCc4ccccc4C(F)(F)F)c(C(N)=O)s3)c2cc1OC [GW843682X] |  |  |  |  |  |  |  |  |  |  |  |  |  | IC50 (CP67-MEL): 116 nM; IC50 (KP-N-RT-BM-1): 131 nM |
| Nc1cccc2c1CN(C1CCC(=O)NC1=O)C2=O (centres undefined) [LENALIDOMIDE] |  |  |  |  |  |  |  |  |  |  |  |  |  | IC50 (TGBC11TKB; Homo sapiens, TGBC11TKB): > 5 µM; IC50 (NCI-H1975; Homo sapiens, NCI-H1975): > 5 µM; IC50 (RH-18; Homo sapiens, Rh18): > 5 µM; IC50 (LU-135; Homo sapiens, LU-135): > 5 µM; IC50 (BALL-1; Homo sapiens, BALL-1): > 5 µM; IC50 (NCI-H1666; Homo sapiens, NCI-H1666): > 5 µM; IC50 (SW900; Homo sapiens, SW900): > 5 µM |
| CN(C)C(=N)NC(=N)N [METFORMIN] |  |  |  |  |  |  |  |  |  |  |  |  |  | IC50 (TGBC11TKB; Homo sapiens, TGBC11TKB): > 20000 µM; IC50 (NCI-H1975; Homo sapiens, NCI-H1975): 11700 µM; IC50 (BALL-1; Homo sapiens, BALL-1): > 20000 µM; IC50 (SW900; Homo sapiens, SW900): 19300 µM |
| Cc1cn(-c2cc(NC(=O)c3ccc(C)c(Nc4nccc(-c5cccnc5)n4)c3)cc(C(F)(F)F)c2)cn1 [NILOTINIB] |  |  |  |  |  |  |  |  |  |  |  |  |  | IC50 (TGBC11TKB; Homo sapiens, TGBC11TKB): > 2 µM; IC50 (NCI-H1975; Homo sapiens, NCI-H1975): > 2 µM; IC50 (RH-18; Homo sapiens, Rh18): > 2 µM; IC50 (LU-135; Homo sapiens, LU-135): > 2 µM; IC50 (BALL-1; Homo sapiens, BALL-1): > 2 µM; IC50 (NCI-H1666; Homo sapiens, NCI-H1666): > 2 µM; IC50 (SW900; Homo sapiens, SW900): > 2 µM |
| COC1=CC(c2cc3ccccc3[nH]2)=N/C1=C\c1[nH]c(C)cc1C [OBATOCLAX MESYLATE] | 2620 nM | 3.76 µM | 1600 nM | 0.528 µM | 174 nM | 420 nM | 2880 nM | 1690 nM | < 62.5 nM | 405 nM | 57.2 nM | 7.32 µM | > 16 µM |  |
| CO[C@H]1C[C@@H]2CC[C@@H](C)[C@@](O)(O2)C(=O)C(=O)N2CCCC[C@H]2C(=O)O[C@H]([C@H](C)C[C@@H]2CC[C@@H](OC(=O)C(C)(CO)CO)[C@H](OC)C2)CC(=O)[C@H](C)/C=C(\C)[C@@H](O)[C@@H](OC)C(=O)[C@H](C)C[C@H](C)/C=C/C=C/C=C/1C [TEMSIROLIMUS] |  |  |  |  |  |  |  |  |  |  |  |  |  | IC50 (TGBC11TKB; Homo sapiens, TGBC11TKB): > 0.2 µM; IC50 (NCI-H1975; Homo sapiens, NCI-H1975): > 0.2 µM; IC50 (RH-18; Homo sapiens, Rh18): > 0.2 µM; IC50 (LU-135; Homo sapiens, LU-135): > 0.2 µM; IC50 (BALL-1; Homo sapiens, BALL-1): > 0.2 µM; IC50 (NCI-H1666; Homo sapiens, NCI-H1666): > 0.2 µM; IC50 (SW900; Homo sapiens, SW900): > 0.2 µM |
| CS(=O)(=O)c1ccc(C(=O)Nc2ccc(Cl)c(-c3ccccn3)c2)c(Cl)c1 [VISMODEGIB] |  |  |  |  |  |  |  |  |  |  |  |  |  | IC50 (TGBC11TKB; Homo sapiens, TGBC11TKB): > 10 µM; IC50 (NCI-H1975; Homo sapiens, NCI-H1975): > 10 µM; IC50 (RH-18; Homo sapiens, Rh18): > 10 µM; IC50 (LU-135; Homo sapiens, LU-135): > 10 µM; IC50 (BALL-1; Homo sapiens, BALL-1): > 10 µM; IC50 (NCI-H1666; Homo sapiens, NCI-H1666): > 10 µM; IC50 (SW900; Homo sapiens, SW900): > 10 µM |
| BLEOMYCIN |  |  |  |  |  |  |  |  |  |  |  |  |  | IC50 (SK-CO-1; sk-co-1): 247 nM; IC50 (C-4-II; c-4-ii): 0.381 µM; IC50 (RT-4; rt-4): 5.86 nM; IC50 (NCI-H838; nci-h838): 5.95 µM; IC50 (HCC1143; hcc1143): 27200 nM; IC50 (NCI-H1734; nci-h1734): 17.4 nM; IC50 (NCI-H1618; nci-h1618): 5990 nM; IC50 (Caov-3 cell line; caov-3): 20500 nM; IC50 (SNG-M; sng-m): 831 nM; IC50 (MES-SA; mes-sa): 1670 nM; IC50 (COLO 205; colo-205): 3240 nM; IC50 (EFE-184; efe-184): 383 µM; IC50 (SNU-475; snu-475): 67.5 µM |
| CISPLATIN |  |  |  |  |  |  |  |  |  |  |  |  |  | IC50 (TGBC11TKB; tgbc11tkb): 29.4 µM; IC50 (NCI-H1975; nci-h1975): 409 µM; IC50 (RH-18; rh-18): 353 µM; IC50 (LU-135; lu-135): 33.8 µM; IC50 (BALL-1; ball-1): 75.9 µM; IC50 (NCI-H1666; nci-h1666): 56.5 µM; IC50 (SW900; sw900): 28.9 µM |
